This test has as its target BTK (Homo sapiens, UniProt Q06187). Briefly: biochemical. Conditions: read-out: BTK inhibition (%), 0.75 uM BTK, […] probe 3l, 15 min preincubation.

Inhibition data for 27 compounds are collected here from PMC8041284, “Tunable Methacrylamides for Covalent Ligand Directed Release Chemistry” (Journal of the American Chemical Society, 2021).

Sequence of BTK (Q06187 402-655 limits assumed): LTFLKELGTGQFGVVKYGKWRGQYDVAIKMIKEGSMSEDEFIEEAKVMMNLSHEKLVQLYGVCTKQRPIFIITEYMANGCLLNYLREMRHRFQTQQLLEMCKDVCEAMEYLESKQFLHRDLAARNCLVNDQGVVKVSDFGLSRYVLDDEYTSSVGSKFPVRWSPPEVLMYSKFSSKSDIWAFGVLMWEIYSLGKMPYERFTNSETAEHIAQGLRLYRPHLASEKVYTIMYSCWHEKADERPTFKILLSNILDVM

As usually defined, the inhibition is the relative decrease from the control value, in per cent. In the case of `O=C1C(Cl)=C(N2CCOCC2)C(=O)N1c1ccc(Cl)c(Cl)c1` [PCM-0215236], the inhibition at 10 µM was -0.8%.

As to `Cn1cc(C2=C(c3cn(CCCSC(=N)N)c4ccccc34)C(=O)NC2=O)c2ccccc21` [PCM-0215237], the inhibition at 10 µM turned out to be 117%.

In the case of `CC(=O)Nc1cccc2c1c(Sc1ccc(Cl)cc1)c(C)n2CC(=O)O` [PCM-0215238], the inhibition at 10 µM was -9.3%.

`COC(=O)[C@]12CCC(C)(C)C[C@H]1[C@H]1C(=O)C=C3[C@@]4(C)C=C(C#N)C(=O)C(C)(C)[C@@H]4CC[C@@]3(C)[C@]1(C)CC2` [PCM-0215239]: the inhibition at 10 µM came out at 16.6%.

For the compound `CC(C)(C)NS(=O)(=O)c1cncc(-c2cc(F)c3nc(N)nn3c2)c1` [PCM-0215240], the inhibition at 10 µM was -4.8%.

As to `Cc1cc(Nc2ccc(NC(=O)c3ccc(Nc4ccnc5ccccc45)cc3)cc2)nc(N)n1` [PCM-0215241], the inhibition at 10 µM turned out to be 17%.

As for `CC(C)(C#N)c1ccc(N2C(=O)OCc3cnc4ccc(-c5cnc6ccccc6c5)cc4c32)cc1` [PCM-0215242], the inhibition at 10 µM is -4.8%.

As to `Fc1cc(F)c2c(c1)[C@H]1C=CC[C@H]1C(c1cccnc1)N2` (stereo partly drawn) [PCM-0215243], the inhibition at 10 µM was -18.5%.

Turning to `Cc1c(C(=O)N2CCOc3ccc(-c4ccc(N)nc4)cc3C2)ccc(S(C)(=O)=O)c1F` [PCM-0215244], the inhibition at 10 µM was 1.4%.

Take `C=CC(=O)Nc1cccc(Nc2nc(Nc3ccc(N4CCN(C(C)=O)CC4)cc3OC)ncc2C(F)(F)F)c1` [PCM-0215245]: the inhibition at 10 µM was found to be 95.9%.

Turning to `CCn1c2ccccc2c2cc(Nc3ccnc(NCCCN4CCOCC4)n3)ccc21` [PCM-0215246], the inhibition at 10 µM was -6.9%.

With `COc1cc(-c2ncn(/C=C\C(=O)OC(C)C)n2)cc(C(F)(F)F)c1` [PCM-0215247], the inhibition at 10 µM is -11.6%.

As to `O=C1c2ccc(Nc3ccc(F)cc3F)cc2CCc2ccc(OC[C@H](O)CO)cc21` [PCM-0215248], the inhibition at 10 µM worked out at 13.1%.

Regarding `CCCC(CCC)C(=O)OC1C[C@H]2CC[C@@H](C1)[N+]2(C)C` (stereo partly drawn) [PCM-0215249], the inhibition at 10 µM is -37.4%.

Consider `O=C(O)c1ccc(NC(=O)[C@H](Cc2ccc(O)cc2)NC(=O)c2ccccc2)cc1` [PCM-0215250], for which the inhibition at 10 µM is -10.1%.

For `O=C(O)[C@H](O)[C@H](O)[C@@H](O)[C@H](O)[C@H](O)CO` [PCM-0215251], the inhibition at 10 µM was -28.9%.

On to `CC1(C)[C@@H](OC(=O)CCC(=O)O)CC[C@]2(C)[C@H]3C(=O)C=C4[C@@H]5C[C@@](C)(C(=O)O)CC[C@]5(C)CC[C@@]4(C)[C@]3(C)CC[C@@H]12` [PCM-0215252], for which the inhibition at 10 µM worked out at 26.5%.

Take `CC(C)(O/N=C(\C(=O)N[C@@H]1C(=O)N2C(C(=O)[O-])=C(C[n+]3ccccc3)CS[C@H]12)c1csc(N)n1)C(=O)O` [PCM-0215253]: the inhibition at 10 µM amounted to 6.8%.

For the compound `CC(=O)OCC1=C(C(=O)O)N2C(=O)[C@@H](NC(=O)CSc3ccncc3)[C@H]2SC1` [PCM-0215254], the inhibition at 10 µM is 3.1%.

In the case of `C[N+]1(C)CCCC(OC(=O)C(O)(c2ccccc2)c2ccccc2)C1` (stereo not drawn) [PCM-0215256], the inhibition at 10 µM was -7.8%.

As to `CCCCC(C)(O)C/C=C/[C@H]1[C@H](O)CC(=O)[C@@H]1CCCCCCC(=O)OC` (stereo partly drawn) [PCM-0215257], the inhibition at 10 µM was -7.8%.

As for `CN1CCC[C@H]1c1cccnc1` [PCM-0215258], the inhibition at 10 µM was -1.6%.

In the case of `Cc1ccc(C(=O)c2ccc(CC(=O)O)n2C)cc1` [PCM-0215259], the inhibition at 10 µM is 9.4%.

For the compound `Cc1ccc2nc(NCCN)c3ncc(C)n3c2c1` [PCM-0215260], the inhibition at 10 µM is -16.6%.

As to `O=C(NCc1ccc(Oc2ccccc2)cc1)c1nc(-c2cc(Br)c(O)c(Br)c2)no1` [PCM-0215261], the inhibition at 10 µM is 94.2%.

With `O=C(Nc1ccc(-c2ccnc(Nc3ccc(N4CCOCC4)cc3)n2)cc1)[C@@H]1CCCN1` [PCM-0215262], the inhibition at 10 µM stood at 4.8%.

With `COc1c(C)c(C(=O)c2ccc(N)c(C(=O)O)c2)n2ccccc12` [PCM-0215263], the inhibition at 10 µM was determined as 17.2%.
